# Experimental data as given in ChEMBL document CHEMBL1201862, “PubChem BioAssay data set” (2004).
# Calls of active or inactive are those of the source.
# Legend:
# [1] = molecular target: T1, Neuropeptide Y receptor type 1 (Homo sapiens, UniProt P25929); format: functional;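 further: HEK293 cells with a CNG channel challenged with NPY then isoproterenol; potency as antagonist that reverses NPY suppression of cAMP signal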
# T1 sequence (P25929 whole entry): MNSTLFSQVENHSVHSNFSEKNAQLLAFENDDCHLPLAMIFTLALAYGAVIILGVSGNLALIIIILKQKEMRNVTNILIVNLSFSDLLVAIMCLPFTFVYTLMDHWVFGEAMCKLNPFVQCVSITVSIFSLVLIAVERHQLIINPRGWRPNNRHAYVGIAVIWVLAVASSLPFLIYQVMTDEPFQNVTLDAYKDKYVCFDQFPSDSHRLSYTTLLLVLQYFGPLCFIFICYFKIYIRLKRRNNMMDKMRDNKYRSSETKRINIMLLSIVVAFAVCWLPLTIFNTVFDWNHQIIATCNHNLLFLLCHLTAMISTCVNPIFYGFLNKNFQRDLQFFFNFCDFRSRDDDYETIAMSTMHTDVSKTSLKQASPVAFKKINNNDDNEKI
# [2] = tested on: BJ; assay: BJ-TERT fibroblast viability loss – cell-based, RAS-independent, luminescence, dose response (AID 1933); format: functional; conditions: Homo sapiens
# [3] = tested on: BJ; assay: cells; format: functional, cell-based; conditions: Homo sapiens
# [4] = molecular target: T2, Neuropeptide Y receptor type 2 (Homo sapiens, UniProt P49146); format: functional, cell-based;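 further: HEK293 cells expressing the receptor and a CNG channel; stimulus was NPY near EC95 followed by isoproterenol to raise cAMP; antagonist potency measured as restoring cAMP signal that NPY suppresses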
# T2 sequence (P49146 whole entry): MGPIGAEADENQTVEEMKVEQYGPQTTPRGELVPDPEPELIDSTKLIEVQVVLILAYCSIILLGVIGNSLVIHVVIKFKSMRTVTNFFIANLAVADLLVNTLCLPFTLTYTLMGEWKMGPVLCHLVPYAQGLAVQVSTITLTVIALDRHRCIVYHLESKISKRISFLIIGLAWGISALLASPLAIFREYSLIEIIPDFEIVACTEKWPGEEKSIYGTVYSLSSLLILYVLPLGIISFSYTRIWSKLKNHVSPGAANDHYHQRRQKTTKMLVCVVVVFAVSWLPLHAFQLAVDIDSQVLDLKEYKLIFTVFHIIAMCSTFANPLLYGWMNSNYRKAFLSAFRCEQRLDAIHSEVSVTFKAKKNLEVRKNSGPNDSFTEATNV
# [5] = viability of PTEN-deleted HCT116 cells – cell-based, HCT116 PTEN knockout, dose response (AID 1047); format: functional;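 further: HCT116 colon tumor cells with PTEN knocked out; cells exposed to compound for 60 hours before readout; potency for loss of cell viability measured by luminescence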
# [6] = viability of HCT116 lacking mutant beta-catenin – cell-based, human colon tumor, dose response (AID 1045); format: functional;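 further: HCT116 colon tumor cells with beta catenin knocked out; cells exposed to compound for 60 hours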
# [7] = tested on: BJ; assay: BJ-TERT-LT-ST fibroblast viability loss – cell-based, RAS-independent, luminescence, dose response (AID 1935); format: functional; conditions: Homo sapiens;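 further: BJ fibroblasts immortalized with TERT plus LT and ST oncogenes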
# [8] = DRD fibroblast viability loss – cell-based, non-viral oncogenic, luminescence, dose response (AID 1934); format: functional; conditions: Homo sapiens
# [9] = tested on: BJ; assay: growth inhibition of engineered Ras-driven BJ cells – cell-based, alamar blue fluorescence, cherrypicked samples, dose response (AID 2631); format: functional; conditions: Homo sapiens;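 further: confirmatory dose-response assay in RAS-dependent BJ fibroblasts engineered with TERT, LT and ST, with cytotoxicity read by fluorescence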
# [10] = Luminescence Cell-Based Dose Response to Identify Activators of 5'UTR Stem-Loop Driven Prion Protein mRNA Translation in H4-C Neuroglioblastoma Cells. [Related pubchem assays: 1829 (Project Summary), 1814 (Primary HTS)]; format: functional
# [11] = Luminescence Cell-Based Dose Confirmation HTS to Identify Activators of 5'UTR Stem-Loop Driven Alpha-Synuclein mRNA Translation in H4 Neuroglioblastoma Cells. [Related pubchem assays: 1829 (Project Summary), 1814 (Primary HTS)]; format: functional
# [12] = tested on: H4; assay: Luminescence Cell-Based Dose Response HTS to Identify Activators of 5'UTR Stem-Loop Driven Prion Protein mRNA Translation in H4 Neuroglioblastoma Cells. [Related pubchem assays: 1829 (Project Summary), 1814 (Primary HTS)]; format: functional; conditions: Homo sapiens
# [13] = Luminescence Cell-Based Dose Response to Identify Activators of Luciferase Translation or Activity in H4-C Neuroglioblastoma Cells. [Related pubchem assays: 1829 (Project Summary), 1814 (Primary HTS)]; format: functional
# [14] = Luminescence Cell-Based Dose Confirmation to Identify Activators of 5'UTR Stem-Loop Driven Alpha-Synuclein mRNA Translation in H4 Neuroglioblastoma Cells. [Related pubchem assays: 1829 (Project Summary), 1814 (Primary HTS)]; format: functional
# [15] = molecular target: T3, RNA-binding protein pos-1 (Caenorhabditis elegans, UniProt G5EF15); assay: disruptors of C. elegans POS-1 RNA interaction – biochemical, fluorescence polarization, dose response (AID 1964);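 further: purified POS-1 fused to maltose binding protein made in E. coli; potency of compounds blocking POS-1 binding to fluorescent RNA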
# T3 sequence (G5EF15 whole entry): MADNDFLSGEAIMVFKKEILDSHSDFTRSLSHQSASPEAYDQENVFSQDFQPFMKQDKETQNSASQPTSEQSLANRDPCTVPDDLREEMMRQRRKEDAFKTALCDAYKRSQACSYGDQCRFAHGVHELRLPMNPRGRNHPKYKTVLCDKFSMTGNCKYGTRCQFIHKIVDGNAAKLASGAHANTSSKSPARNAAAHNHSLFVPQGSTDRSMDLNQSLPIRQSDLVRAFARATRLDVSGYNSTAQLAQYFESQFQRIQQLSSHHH
# [16] = molecular target: T4, Zinc finger protein mex-5 (Caenorhabditis elegans, UniProt Q9XUB2); assay: potency of MEX-5 RNA-binding blockers – biochemical, C. elegans, fluorescence polarization, dose response (AID 1960)
# T4 sequence (Q9XUB2 whole entry): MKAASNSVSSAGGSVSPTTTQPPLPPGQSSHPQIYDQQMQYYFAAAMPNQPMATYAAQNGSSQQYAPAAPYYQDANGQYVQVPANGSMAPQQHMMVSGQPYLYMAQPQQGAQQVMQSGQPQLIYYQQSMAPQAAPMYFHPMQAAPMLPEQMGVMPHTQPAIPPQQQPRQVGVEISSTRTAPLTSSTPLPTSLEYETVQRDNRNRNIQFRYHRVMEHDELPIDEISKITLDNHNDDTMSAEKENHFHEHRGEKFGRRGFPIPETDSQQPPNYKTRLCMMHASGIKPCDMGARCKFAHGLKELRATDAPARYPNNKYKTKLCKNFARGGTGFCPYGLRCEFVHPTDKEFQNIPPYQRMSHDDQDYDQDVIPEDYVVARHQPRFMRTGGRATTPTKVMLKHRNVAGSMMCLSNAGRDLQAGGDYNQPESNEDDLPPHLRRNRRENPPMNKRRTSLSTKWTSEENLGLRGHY
# [17] = molecular target: Large T antigen (Simian virus 40, UniProt P03070); format: functional, Betapolyomavirus macacae;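 further: Confirmatory-stage PubChem screen for compounds that inhibit SV40 T antigen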
# [18] = molecular target: T5, Induced myeloid leukemia cell differentiation protein Mcl-1 (Homo sapiens, UniProt Q07820); assay: blockers of MCL1 binding to BIM peptide – biochemical, fluorescence polarization, BIM-BH3 peptide, 1536-well, dose response (AID 2217)
# [19] = molecular target: Bcl-2-like protein 1 (Homo sapiens, UniProt Q07817); assay: blockers of BCLXL peptide binding – biochemical, fluorescence polarization, 1536-well, selectivity assay for MCL1 inhibitor project, dose response (AID 2218)
# [20] = molecular target: T6, Low molecular weight phosphotyrosine protein phosphatase (Homo sapiens, UniProt P24666); format: functional; conditions: read-out: IC50_Mean;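 further: Dose-response confirmation assay measuring inhibition of LMPTP enzyme activity by fluorescence intensity read-out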
# T6 sequence (P24666 whole entry): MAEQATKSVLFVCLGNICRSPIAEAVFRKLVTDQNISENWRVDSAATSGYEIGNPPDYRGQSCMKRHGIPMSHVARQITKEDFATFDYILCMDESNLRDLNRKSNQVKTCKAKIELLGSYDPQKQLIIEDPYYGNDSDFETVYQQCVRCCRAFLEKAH
# [21] = Trypanosoma cruzi growth suppression in host cells – NIH3T3 host cells, beta-gal luminescence, confirmation (AID 2044); format: functional, cell-based;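 further: intracellular parasites grown in NIH/3T3 mouse fibroblasts as host cells; luminescent beta-galactosidase reporter signal from transgenic T. cruzi replicating inside host cells; inhibitors lower the luminescence signal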
# [22] = NIH3T3 cell viability loss – ATP luminescence, mouse fibroblasts, counter-screen, dose response (AID 2010); format: functional, cell-based;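 further: cells exposed to compound for about 90 hours before reading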
# [23] = cells
# [24] = molecular target: T7, Aminopeptidase N (Plasmodium falciparum FcB1/Columbia, UniProt O96935); assay: malaria alanyl aminopeptidase activity blockers – biochemical, fluorogenic H-Leu-NHMec substrate, 1536-well (AID 1445); design: species or system Plasmodium falciparum 3D7, 3D7
# T7 sequence (O96935 whole entry): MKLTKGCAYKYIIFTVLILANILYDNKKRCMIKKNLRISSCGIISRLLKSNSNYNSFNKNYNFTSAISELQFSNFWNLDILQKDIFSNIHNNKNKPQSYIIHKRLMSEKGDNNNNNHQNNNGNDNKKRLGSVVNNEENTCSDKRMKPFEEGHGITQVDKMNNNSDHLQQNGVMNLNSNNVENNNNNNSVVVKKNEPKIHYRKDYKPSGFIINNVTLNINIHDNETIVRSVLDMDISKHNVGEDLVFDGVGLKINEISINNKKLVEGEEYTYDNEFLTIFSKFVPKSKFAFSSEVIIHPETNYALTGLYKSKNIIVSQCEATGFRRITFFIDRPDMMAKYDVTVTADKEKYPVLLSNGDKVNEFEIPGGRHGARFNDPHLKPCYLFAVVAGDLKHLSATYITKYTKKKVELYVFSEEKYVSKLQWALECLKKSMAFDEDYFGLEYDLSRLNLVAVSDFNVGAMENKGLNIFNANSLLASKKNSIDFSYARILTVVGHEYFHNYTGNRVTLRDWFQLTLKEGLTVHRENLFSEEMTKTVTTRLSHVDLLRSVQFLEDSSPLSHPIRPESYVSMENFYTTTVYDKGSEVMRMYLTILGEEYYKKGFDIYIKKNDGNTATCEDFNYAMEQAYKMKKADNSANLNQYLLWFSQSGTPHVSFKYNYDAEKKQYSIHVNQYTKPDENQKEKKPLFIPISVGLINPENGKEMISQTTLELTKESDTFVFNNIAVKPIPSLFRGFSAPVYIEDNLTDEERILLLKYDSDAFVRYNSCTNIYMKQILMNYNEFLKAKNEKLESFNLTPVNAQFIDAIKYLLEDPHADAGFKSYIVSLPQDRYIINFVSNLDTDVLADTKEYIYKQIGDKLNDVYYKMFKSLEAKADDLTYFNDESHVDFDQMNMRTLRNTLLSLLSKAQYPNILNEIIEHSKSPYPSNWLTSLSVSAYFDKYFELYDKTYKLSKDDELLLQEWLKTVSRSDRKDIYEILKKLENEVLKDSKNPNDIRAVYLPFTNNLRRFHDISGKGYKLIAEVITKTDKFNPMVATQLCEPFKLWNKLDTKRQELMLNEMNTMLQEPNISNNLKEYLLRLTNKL
# [25] = molecular target: T8, Bcl-2-like protein 10 (Homo sapiens, UniProt Q9HD36); assay: Bcl-B/TR3 peptide binding disruption – biochemical, fluorescence polarization, FITC-TR3 peptide, selectivity assay for Bfl-1 inhibitor project, primary screen (AID 748);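 further: fluorescence polarization from a fluorescein-labelled TR3 peptide binding purified Bcl-B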
# T8 sequence (Q9HD36 whole entry): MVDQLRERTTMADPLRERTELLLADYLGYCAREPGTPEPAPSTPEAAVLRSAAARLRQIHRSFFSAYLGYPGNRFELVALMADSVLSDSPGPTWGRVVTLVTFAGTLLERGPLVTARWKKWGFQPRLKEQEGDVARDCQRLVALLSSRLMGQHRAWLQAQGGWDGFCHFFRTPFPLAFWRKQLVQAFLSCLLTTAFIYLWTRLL
# [26] = molecular target: Estrogen receptor beta (Homo sapiens, UniProt Q92731); assay: blockers of SRC-3 recruitment to ERβ – biochemical, ELISA, streptavidin-HRP readout, orthogonal assay, confirmation (AID 1060)
# [27] = molecular target: T5, Induced myeloid leukemia cell differentiation protein Mcl-1; format: functional
# [28] = molecular target: Genome polyprotein (dengue virus type 2, UniProt P29990); assay: flavivirus cap methylation enzyme inhibition – biochemical, confirmation dose response, primary screen (AID 588689); format: functional
# [29] = molecular target: T9, Protein Tat (Human immunodeficiency virus type 1 group M subtype B (isolate HXB2)(HIV-1), UniProt P04608); format: functional;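 further: tat binding to TAR RNA read out by fluorescence polarization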
# T9 sequence (P04608 whole entry): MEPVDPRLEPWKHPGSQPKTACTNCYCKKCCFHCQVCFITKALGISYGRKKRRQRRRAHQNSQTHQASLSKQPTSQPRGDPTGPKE
# [30] = Luminescence Cell-Based Dose Response HTS to Identify Activators of Luciferase Translation or Activity in H4 […] Cells. [Related pubchem assays: 1829 (Project Summary), 1814 (Primary HTS)]; format: functional
# T5 sequence (Q07820 whole entry): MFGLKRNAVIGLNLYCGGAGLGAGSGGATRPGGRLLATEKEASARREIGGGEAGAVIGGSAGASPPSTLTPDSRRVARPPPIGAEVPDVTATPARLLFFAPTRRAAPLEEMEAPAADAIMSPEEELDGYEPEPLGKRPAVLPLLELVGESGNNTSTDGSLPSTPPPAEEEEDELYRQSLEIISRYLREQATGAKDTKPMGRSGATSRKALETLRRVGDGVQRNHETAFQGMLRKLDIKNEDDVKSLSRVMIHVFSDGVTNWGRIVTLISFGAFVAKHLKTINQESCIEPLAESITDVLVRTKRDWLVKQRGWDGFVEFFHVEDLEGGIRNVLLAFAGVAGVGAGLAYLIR
# Chain of Large T antigen (P03070 whole entry): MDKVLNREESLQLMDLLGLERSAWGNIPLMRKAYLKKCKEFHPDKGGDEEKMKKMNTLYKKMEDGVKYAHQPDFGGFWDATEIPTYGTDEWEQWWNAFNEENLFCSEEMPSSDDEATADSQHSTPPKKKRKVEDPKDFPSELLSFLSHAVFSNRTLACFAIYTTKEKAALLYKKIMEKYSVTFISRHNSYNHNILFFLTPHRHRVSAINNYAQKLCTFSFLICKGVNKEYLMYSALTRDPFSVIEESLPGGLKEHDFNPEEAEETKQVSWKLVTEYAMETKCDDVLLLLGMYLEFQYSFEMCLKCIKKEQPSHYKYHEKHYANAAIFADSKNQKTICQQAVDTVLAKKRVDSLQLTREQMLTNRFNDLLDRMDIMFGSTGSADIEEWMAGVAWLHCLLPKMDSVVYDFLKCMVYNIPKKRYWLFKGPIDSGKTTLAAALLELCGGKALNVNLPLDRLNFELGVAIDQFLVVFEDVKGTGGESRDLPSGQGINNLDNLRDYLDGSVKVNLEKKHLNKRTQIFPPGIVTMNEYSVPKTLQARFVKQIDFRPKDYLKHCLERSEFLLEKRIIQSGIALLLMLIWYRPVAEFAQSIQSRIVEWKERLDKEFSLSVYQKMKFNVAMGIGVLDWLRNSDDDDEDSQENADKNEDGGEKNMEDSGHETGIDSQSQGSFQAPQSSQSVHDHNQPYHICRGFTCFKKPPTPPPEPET
# Chain of Genome polyprotein (P29990 2492-3391 limits assumed): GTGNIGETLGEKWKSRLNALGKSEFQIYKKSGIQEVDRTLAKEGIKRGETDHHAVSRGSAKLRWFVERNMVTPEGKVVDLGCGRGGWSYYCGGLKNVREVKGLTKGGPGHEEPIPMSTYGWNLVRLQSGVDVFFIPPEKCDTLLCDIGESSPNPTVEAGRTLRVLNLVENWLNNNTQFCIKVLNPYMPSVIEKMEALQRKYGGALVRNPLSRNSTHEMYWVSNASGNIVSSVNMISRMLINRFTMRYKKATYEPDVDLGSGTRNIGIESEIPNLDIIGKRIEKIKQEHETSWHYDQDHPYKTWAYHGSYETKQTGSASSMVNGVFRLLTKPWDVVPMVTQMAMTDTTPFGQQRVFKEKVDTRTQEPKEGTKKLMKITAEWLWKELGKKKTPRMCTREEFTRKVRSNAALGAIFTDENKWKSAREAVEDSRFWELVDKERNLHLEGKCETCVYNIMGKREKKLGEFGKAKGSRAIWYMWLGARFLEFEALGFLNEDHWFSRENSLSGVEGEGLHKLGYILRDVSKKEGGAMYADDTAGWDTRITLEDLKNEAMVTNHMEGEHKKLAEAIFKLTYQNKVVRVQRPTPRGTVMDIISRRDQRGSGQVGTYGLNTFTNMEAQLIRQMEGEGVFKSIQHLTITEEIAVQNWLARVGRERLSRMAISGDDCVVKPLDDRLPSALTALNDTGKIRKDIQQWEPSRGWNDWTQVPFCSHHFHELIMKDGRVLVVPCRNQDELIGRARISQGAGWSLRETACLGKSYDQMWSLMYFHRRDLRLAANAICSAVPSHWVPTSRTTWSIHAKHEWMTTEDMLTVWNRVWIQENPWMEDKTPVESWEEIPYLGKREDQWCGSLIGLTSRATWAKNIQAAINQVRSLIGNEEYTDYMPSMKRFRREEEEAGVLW
# Chain of Estrogen receptor beta (Q92731 whole entry): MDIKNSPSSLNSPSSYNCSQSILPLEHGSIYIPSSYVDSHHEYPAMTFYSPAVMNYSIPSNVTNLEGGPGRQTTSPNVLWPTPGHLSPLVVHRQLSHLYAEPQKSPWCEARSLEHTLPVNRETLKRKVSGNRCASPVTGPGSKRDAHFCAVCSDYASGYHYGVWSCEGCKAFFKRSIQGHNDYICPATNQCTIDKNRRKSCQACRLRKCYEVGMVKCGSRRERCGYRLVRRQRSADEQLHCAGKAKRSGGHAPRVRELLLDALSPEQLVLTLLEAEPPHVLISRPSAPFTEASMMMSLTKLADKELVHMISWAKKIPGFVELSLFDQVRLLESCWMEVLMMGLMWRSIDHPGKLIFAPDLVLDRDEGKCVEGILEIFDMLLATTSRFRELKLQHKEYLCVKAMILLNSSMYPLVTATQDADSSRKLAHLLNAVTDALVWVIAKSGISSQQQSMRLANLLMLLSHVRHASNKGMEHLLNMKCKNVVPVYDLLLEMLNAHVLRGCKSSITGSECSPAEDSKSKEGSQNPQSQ
# Chain of Bcl-2-like protein 1 (Q07817 whole entry): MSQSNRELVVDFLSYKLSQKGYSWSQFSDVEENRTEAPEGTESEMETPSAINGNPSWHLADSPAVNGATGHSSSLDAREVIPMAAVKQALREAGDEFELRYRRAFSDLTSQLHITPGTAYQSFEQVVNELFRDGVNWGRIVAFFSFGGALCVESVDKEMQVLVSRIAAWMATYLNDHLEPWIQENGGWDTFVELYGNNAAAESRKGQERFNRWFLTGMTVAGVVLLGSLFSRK
structure (smiles),measurement,setting,value
O=C(/C=C/c1cccc2ccccc12)c1ccncc1,IC50,[1],5.47 µM (active)
same,EC50,[2],10.2 µM (inconclusive)
same,EC50,[3],> 150 µM (inconclusive)
same,IC50,[4],4.95 µM (active)
same,EC50,[5],8.54 µM (active)
same,EC50,[6],5.26 µM (active)
same,EC50,[7],> 75 µM (inconclusive)
same,EC50,[8],16.5 µM (active)
same,EC50,[9],> 133 µM (inactive)
Clc1ccccc1/C=N/Nc1cc(N2CCOCC2)ncn1,EC50,[10],1.05 µM (active)
same,EC50,[11],< 0.1 µM (active)
same,EC50,[12],9.34 µM (active)
same,EC50,[13],0.394 µM (active)
same,EC50,[14],0.564 µM (active)
Cc1ccc(-c2cc(-c3ccco3)c(C#N)c(=O)[nH]2)cc1,EC50,[15],26.1 µM (active)
same,EC50,[16],8.36 µM (inconclusive)
same,IC50,[17],64.5 µM (active)
same,IC50,[18],> 12.1 µM (not active)
same,IC50,[19],> 109 µM (not active)
same,IC50,[20],49.2 µM (inactive)
CN(C)CCCSc1nc(-c2ccccc2)nc2c1CCC2,IC50,[1],7.33 µM (active)
same,EC50,[21],< 0.1 µM (active)
same,IC50,[4],18.2 µM (not active)
same,EC50,[22],> 60 µM (not active)
same,EC50,[23],0.12 µM (active)
O=C(CSc1nnc(-c2ccco2)c(-c2ccco2)n1)Nc1ccccc1,IC50,[24],97.7 µM (active)
same,IC50,[25],15.3 µM (active)
same,IC50,[26],< 0.023 µM (not active)
same,IC50,[27],3.11 µM (active)
same,IC50,[28],> 100 µM (active)
same,IC50,[29],5.16 µM (inconclusive)
Cc1ccc(-c2cc(NC(=O)c3ccccc3)on2)cc1,EC50,[10],0.632 µM (active)
same,EC50,[11],< 0.1 µM (active)
same,EC50,[30],0.137 µM (active)
same,EC50,[12],9.75 µM (active)
same,EC50,[13],0.334 µM (active)
same,EC50,[14],0.463 µM (active)
